# Data from patent US20090162413A1 (priority 1998, published 2009).
# Experiment: Phase 1 multiple escalating intravenous dose safety and pharmacokinetics, QD for 14 days (Example 7)
# Format: in vivo, human
# Settings: for median Cmax: predicted 14-day profile; for AUCτ/Dose / Cmax / Cmax/Dose: secondary predicted parameter; for Gamma: terminal elimination rate constant
# Method: The present study was designed to evaluate the pharmacokinetics of zotarolimus following multiple dosing and to assess its safety while maximizing systemic exposure of healthy subjects. […] The study investigated pharmacokinetics and safety of zotarolimus in a Phase 1, multiple dose-escalation study following multiple intravenous infusions of 200, 400 and 800 μg doses, every day for fourteen consecutive days in healthy subjects.
# Phase 1, multiple-escalating dose, double-blind, placebo-controlled, randomized study. Seventy-two subjects equally divided in 3 once-daily (QD) regimens (200, 400 or 800 μg QD with 16 active and 8 placebo per regimen) were administered a 60-minute QD IV infusion of zotarolimus for 14 consecutive days. Blood samples were collected over 24 hours following the first dose, before dosing on days 10, 11, 12, 13, and for 168 hours following Day 14 dose. Urine samples were collected over 24 hours on days 1, 14, 16, 18 and 20. Blood and urine zotarolimus concentrations were determined using a validated LC/MS/MS method. Pharmacokinetic parameters were determined by compartmental analysis. All Day-AUC0-∞ (area under blood concentration-time curve from time 0 to infinity including all 14 doses) was calculated. Dose and time-linearity and achievement of steady-state were evaluated. Fraction of drug eliminated in urine was determined.
# Within each group, subjects were equally divided at the two study sites with each site enrolling 12 subjects (zotarolimus, eight subjects; placebo four subjects). The dosing scheme within each dose group is presented below:
# Subjects received, under fasting conditions, a single 60-minute daily (QD) intravenous infusion of 200, 400, or 800 μg of zotarolimus or a matching intravenous infusion of placebo for Groups I, II and III, respectively on Study Days 1 through 14. The drug was administered via a syringe pump connected to a y-site device, which also infused 125-150 mL of 5% aqueous dextrose solution (D5W) over 60 minutes. The groups were dosed sequentially with at least 7 days separating the last dose of the previous group and the first dose of the next group during which time safety data from the previous group was analyzed. Dose escalation was dependent on the safety analysis of the lower dose group.
# Five (5)-mL blood samples were collected in potassium EDTA containing tubes to evaluate zotarolimus concentrations prior to dosing (0 hour), and at 0.25, 0.5, 1.0, 1 hour 5 min, 1.25, 1.5, 2, 3, 4, 8, 12, 18 and 24 hours after starting infusion on Study Days 1 and 14. Additional samples were collected at 36, 48, 72, 96, 120, 144 and 168 hours after starting infusion on Study Day 14 and before dosing on Days 10, 11, 12 and 13. Urine was collected in containers without preservatives over the following intervals: 0 to 6, 6 to 12, 12 to 18 and 18 to 24 hours after starting the infusion on Study Days 1, 14, 16, 18 and 20.
# Blood and urine concentrations of zotarolimus were determined using a validated liquid/liquid extraction HPLC tandem mass spectrometric method (LC-MS/MS). The lower limit of quantification of zotarolimus was 0.20 ng/mL using 0.3 mL blood sample and 0.50 ng/mL using 0.3 mL urine sample.
# Safety was evaluated based on adverse event, physical examination, vital signs, ECG, injection site and laboratory tests assessments
# The pharmacokinetic parameter values of zotarolimus were estimated for individual subjects using compartmental analysis. Data from the first dose on Study Day 1, the last dose on Study Day 14 and the trough concentrations on Study Days 10, 11, 12 and 13 were simultaneously modeled for each individual subject. […]
smiles,measurement,setting,value
CO[C@H]1C[C@@H]2CC[C@@H](C)[C@@](O)(O2)C(=O)C(=O)N2CCCC[C@H]2C(=O)O[C@H]([C@H](C)C[C@@H]2CC[C@H](n3cnnn3)[C@H](OC)C2)CC(=O)[C@H](C)/C=C(\C)[C@@H](O)[C@@H](OC)C(=O)[C@H](C)C[C@H](C)/C=C/C=C/C=C/1C [zotarolimus],V1,"200 μg QD IV infusion 14 days, compartmental, mean ± SD",11.4 ± 1.7 L
same,median Cmax,200 μg QD,11.4 ng/mL
same,AUCτ/Dose,"200 μg QD, mean ± SD",0.245 ± 0.031 ng·h/mL/µg
same,Cmax,"200 μg QD, mean ± SD",11.2 ± 1.1 ng/mL
same,Cmax/Dose,"200 μg QD, mean ± SD",0.056 ± 0.006 ng/mL/µg
same,Gamma,"200 μg QD, mean ± SD",0.028 ± 0.005 h − 1
same,V1,"400 μg QD IV infusion 14 days, compartmental, mean ± SD",11.3 ± 1.0 L
same,median Cmax,400 μg QD,22.1 ng/mL
same,AUCτ/Dose,"400 μg QD, mean ± SD",0.260 ± 0.047 ng·h/mL/µg
same,Cmax,"400 μg QD, mean ± SD",21.4 ± 2.4 ng/mL
same,Cmax/Dose,"400 μg QD, mean ± SD",0.053 ± 0.006 ng/mL/µg
same,Gamma,"400 μg QD, mean ± SD",0.022 ± 0.003 h − 1
same,V1,"800 μg QD IV infusion 14 days, compartmental, mean ± SD",13.1 ± 3.2 L
same,fraction of the dose recovered in the urine as unchanged drug,"800 μg QD dose group, 24-hour period on Day 1 and Day 14",approximately 0.1%
same,median Cmax,800 μg QD,38.9 ng/mL
same,AUCτ/Dose,"800 μg QD, mean ± SD",0.224 ± 0.022 ng·h/mL/µg
same,Cmax,"800 μg QD, mean ± SD",38.7 ± 6.3 ng/mL
same,Cmax/Dose,"800 μg QD, mean ± SD",0.048 ± 0.008 ng/mL/µg
same,Gamma,"800 μg QD, mean ± SD",0.023 ± 0.003 h − 1
same,"evidence of immunosuppression, QTc prolongation or clinically significant adverse events",200-800 μg QD for 14 days,"no subject displayed any clinical or biochemical evidence of immunosuppression, QTc prolongation or clinically significant adverse events"
same,most common treatment-emergent adverse events,200-800 μg QD for 14 days,"pain, headache, injection site reaction, dry skin, abdominal pain, diarrhea and rash"
same,serious adverse events,200-800 μg QD for 14 days,no serious adverse events
same,dose proportionality and time dependence of pharmacokinetics,"IV for 14 consecutive days, 200-800 μg QD",dose proportional and time invariant
same,Steady state for QD dosing reached,"QD IV dosing, first trough samples on Day 10",≤ 10 days
same,tolerability,"multiple doses of 200, 400, and 800 μg for 14 consecutive days",generally well tolerated
same,V1,range of means over the studied regimens 200-800 μg QD,11.3 to 13.1 L
same,zotarolimus dose recovered in the urine,"within a 24-hour period post-dose, on average",0.1%
